Patent publication US20150031102A1, “METHODS AND COMPOSITIONS FOR ENHANCED PRODUCTION OF BUTANOL BY CLOSTRIDIA” (Butrolix LLC, priority 2012, published 2015)

System: C. acetobutylicum
Test: Calculated optimum peptide treatment level (polynomial curve fitted to butanol concentration vs treatment level per culture transfer)
Assay type: cell-based, Clostridium acetobutylicum
Conditions: for Calculated Optimum Peptide Level, Average / Average optimum peptide treatment level: average over culture transfers; for Average optimum peptide treatment level: both experiments for BP110517, single non-inhibitory experiment for BP1106213, fairly large standard deviations; for Calculated optimum peptide treatment level: first experiment using BP110517
Description: FIG. 20. Calculation of optimum peptide treatment level for transfer 13 of the first experiment that tested peptide BP110517 (SEQ ID NO:143) (see Table 1 for data). The four butanol concentration data points were graphed against the treatment levels and a polynomial curve was fitted to the graph.
The data from the sequential batch culture experiments treated with peptides BP110517 and BP1106213 were used to calculate optimum peptide treatment levels for enhanced butanol production by C. acetobutylicum. The calculation was made for each culture transfer using the butanol concentration results from control and experimental wells. The four data points for each culture transfer were graphed against the treatment levels, and a polynomial curve was fitted to the graph.
Then, the first derivative of the polynomial fitted to the data for each culture transfer was solved for “x”, which was the maximum point of the fitted polynomial curve (Table 46). The resulting peptide concentration value was assumed to be close to an optimum peptide treatment level that would result in enhanced butanol production.

Row | Substance | Calculated Optimum Peptide Level, Average (Expt. 1) [nM] | Calculated Optimum Peptide Level, Average (Expt. 2) [nM] | Average optimum peptide treatment level | Calculated Optimum Peptide Level (transfer 4, Expt. 1) [nM] | Calculated Optimum Peptide Level (transfer 4, Expt. 2) | Calculated Optimum Peptide Level (transfer 7, Expt. 1) [nM] | Calculated Optimum Peptide Level (transfer 7, Expt. 2) | Calculated Optimum Peptide Level (transfer 10, Expt. 1) [nM] | Calculated Optimum Peptide Level (transfer 10, Expt. 2) | Calculated Optimum Peptide Level (transfer 13, Expt. 1) | Calculated Optimum Peptide Level (transfer 13, Expt. 2) [nM] | Calculated Optimum Peptide Level (transfer 16, Expt. 1) [nM] | Calculated Optimum Peptide Level (transfer 16, Expt. 2) | Calculated Optimum Peptide Level (transfer 19, Expt. 1) [nM] | Calculated Optimum Peptide Level (transfer 19, Expt. 2) | Calculated Optimum Peptide Level (transfer 22, Expt. 1) [nM] | Calculated Optimum Peptide Level (transfer 22, Expt. 2) [nM] | Calculated optimum peptide treatment level (transfer 4) [nM] | Calculated optimum peptide treatment level (transfer 22) [nM]
1 | ILILISG (Derived from Clostridium acetobutylicum SEQ ID NO: 110) [peptide SEQ ID NO: 144] | 46.2 ± 10.7 | 40.5 ± 3.8 | mid to high 40 | 46.0 | Inhib. | 32.4 | Inhib. | 49.0 | Inhib. | Inhib.^d | 43.2 | 50.7 | Inhib. | 36.8 | Inhib. | 62.4 | 37.8 | – | –
2 | SYPGWSW [peptide SEQ ID NO: 143] | 48.5 ± 9.9 | 43.9 ± 31.6 | mid to high 40 | 38.7 | – | 37.3 | 100 nM | 56.6 | 35.6 nM | 40.4 nM | 28.6 | 51.2 | 26.8 nM | 52.5 | 28.3 nM | 62.9 | – | 38.7 | 62.9
